Data reported in patent publication US20050182020A1, “Ceramide de novo synthesis-based therapeutic and prophylactic methods, and related articles of manufacture” (priority 2003, published 2005).

Key:
[1] = system: SRE-mediated gene transcription; assay: SRE-mediated gene transcription, Part II inhibitors of sphingolipid synthesis and DAG generation; format: cell-based; design: SRE-mediated gene transcription inhibited to: unit of the concentration uncertain
Protocol: Reduction of de novo sphingolipid synthesis: Incubation with methylthiodihydroceramide (10 μM) for 6 h reduces SRE-mediated gene transcription to 40%. Methylthiodihydroceramide was received from Gerhild van Echten-Deckert (1). Reduction of de novo sphingolipid biosynthesis by 1-methylthiodihydroceramide is due to its ability to deplete cells of newly formed free sphinganine.
Inhibition of sphingomyelin synthesis: The D609 compound is a xanthate and inhibitor of sphingomyelin synthase. It is a mixture of several isoforms (2). Experiments were carried out with five defined isomers of D609 received via Gemma Fabrias (Dept. of Biological Organic Chemistry, Barcelona, Spain) (Table 1). […] A concentration curve of 10, 20 and 40 μg/ml was tested over 5 h.
Data: Propanolol ([…]) inhibits SRE-mediated gene transcription to 40% (+3%) within 30 min. Resvaratrol ([…]) inhibits SRE-mediated gene transcription to 7% (±16%) within 4 h.

[2] = system: HMG-CoA synthase mRNA; details: previously shown (ref. 10); cited from earlier work
[3] = system: Niemann Pick Disease Type A fibroblasts; assay: Ceramide de novo synthesis (3H-serine) in NPA fibroblasts; format: cell-based; details: overnight incubation with agent, vs 1% BSA
Protocol: FIG. 19. Ceramide synthesis is increased in NPA fibroblasts. Fibroblasts from different control individuals and from two different cell lines derived from Niemann Pick Disease Type A were incubated for 4 h in the presence of ^3H-serine to measure de novo ceramide synthesis after having been incubated overnight in either control medium (1% BSA) or in the presence of cholesterol or C8-Ceramide. Lipid extraction and separation were carried out.

[4] = system: SREBP-1; assay: Western blot analysis of precursor and mature SREBP-1 in CHO cells; format: cell-based, Chinese hamster; details: C6-ceramide 20 μM, 4 h and 8 h, vs controls
Protocol: FIG. 2. C6-ceramide increases pSREBP levels. On day 1, CHO cells were plated in regular growth medium. On day 2, cells were incubated for 4 and 8 h with 1% BSA (control) or in the presence of C6-ceramide (20 μM). Whole cell extracts (30 μg protein) were loaded on a 4-14% continuous gradient SDS-PAGE gel. P denotes the precursor (125 kd) form of SREBP-1 in a representative experiment. C6 ceramide increases the precursor form of SREBP-1 and decreases the mature form of SREBP-1. […] The blot is representative of experiments carried out with ceramide analogues of different chain length. Densitometric results were obtained by analyzing pixels/inch (corrected for actin) and expressed relative to control.
FIG. 4. Increased ceramide synthesis and SRE-mediated gene transcription. (A) Increased ceramide de novo synthesis correlates with increased SRE-mediated gene transcription. […] Cells were harvested, lysed and analyzed for luciferase activity (measured in relative light units, RLU) and protein content. Data are expressed as percentage of control and represent the average (±S.D.) of three different experiments, each performed in triplicate. […] Data are expressed as dpm/protein and represent a typical experiment.
Western blot analysis: Cells were plated on day one in regular growth medium. […] Densitometric quantification was carried out using Scion Image beta 4.02 software (www.scioncorp.com). […]

[5] = system: HSN1 cells (4561); assay: Cholesterol / cholesterylester synthesis from 3H-mevalonate in HSN1 cells; format: cell-based, human; details: 16 h, 3H-mevalonate
Protocol: FIG. 12. Increased free cholesterol synthesis in HSN cells. In order to investigate whether increased SRE-mediated gene transcription also results in increased cholesterol synthesis cells were incubated with radioactive mevalonate, a precursor which represents a committed step in cholesterol synthesis (see FIG. 11). Control and HSN1 cells were incubated for 7 h and 18 h in the presence of trace amounts of ^3H-mevalonate. Lipids were extracted and separated by thin […] chromatography (TLC). Radioactive counts in the cholesterol fraction were analyzed by liquid scintillation counting.
FIG. 14. Oleic acid increases HSN 4561 synthesis of high levels of free cholesterol but not cholesteryl ester. Cells were incubated for 4 h with ^3H-mevalonate and grown in the presence or absence of 0.3 mM oleic acid.
FIG. 16. Incubation with mevastatin decreases free cholesterol synthesis in HSN cells as well as in controls. Cells were treated for 16 h in the presence of ^3H-mevalonate to assess cholesterol de novo synthesis and several inhibitors of either cholesterol or ceramide synthesis (Mevastatin=Statin), C6 ceramide (previously shown by us to decreased SREBP levels and SRE-mediated gene transcription), cycloserine (inhibitor of serine-palmiltoyl transferase), cholesterol (classical inhibitor of de novo synthesis by negative feedback).

[6] = system: SRE-mediated gene transcription; assay: SRE-promoter luciferase reporter gene assay in stably transfected CHO cells; format: cell-based, Chinese hamster; details: for SRE-mediated gene transcription (luciferase RLU/protein): myriocin 1 μM, cycloserine 500 mM, fumonisin B1 10 μM, PPMP 20 μM, NB-DNJ 40 μM, cholesterol/25-OH cholesterol 10/1 μg/ml, vs 1% BSA
Protocol: FIG. 3. Inhibition of ceramide synthesis and SRE-mediated gene transcription. (A) Decreased ceramide synthesis correlates with decreased levels of SRE-mediated gene transcription and mSREBP. […] After cell lysis, luciferase activity was analyzed, and expressed as a ratio of protein content. Data represent the average (±S.D.) of at least 4 different experiments, each performed in triplicate. […] CHO cells stably transfected with an SRE-promoter construct linked to the luciferase reporter gene were incubated for 8 h in the presence of control conditions (1% BSA) or increasing levels of myriocin (0.25-1 μM). After cell lysis, luciferase activity was analyzed, expressed as a ratio of protein content. Data represent the average (±S.D.) of at least 3 different experiments, each performed in triplicate.
FIG. 4. Increased ceramide synthesis and SRE-mediated gene transcription. (A) Increased ceramide de novo synthesis correlates with increased SRE-mediated gene transcription. On day 1, CHO cells stably transfected with an SRE-promoter construct linked to the luciferase reporter gene were plated at 80% confluency. […] Cells were harvested, lysed and analyzed for luciferase activity (measured in relative light units, RLU) and protein content. Data are expressed as percentage of control and represent the average (±S.D.) of three different experiments, each performed in triplicate. Inset: Western blot analysis: On day 1, CHO cells were plated in regular growth medium. On day 2, cells were incubated for 8 h with control medium (1% BSA) or DMS (5 μM). Whole cell extracts (30 μg protein) were loaded on a 4-14% continuous gradient SDS-PAGE gel. P and M denote the precursor (125 kd) and mature (68 kd) form of SREBP-1 in a representative experiment. (B) DMS increases ceramide de novo synthesis. CHO cells were treated for 3.5 h either with control conditions (1% BSA) or DMS (2.5-5 μM). […] Data are expressed as dpm/protein and represent a typical experiment.
(§1) FIG. 5. LY-B cells fail to recover SRE-mediated gene transcription in cholesterol depletion but recover SRE-mediated gene transcription in the presence of DMS. […] Both cell lines have been transfected to stably express an SRE-promoter construct linked to the luciferase reporter gene. On day 2, cells were incubated for 16 h with 1% BSA (control) or in the presence of cholesterol (10 μg/ml) and 25-OH cholesterol (1 μg/ml) to decrease SRE-mediated gene transcription. Then, incubation medium was switched to 1% BSA or DMS (5 μM) for 6 h. After cell lysis, luciferase activity was analyzed, expressed as a ratio of protein content. Data represent the average (±S.D.) of at least 4 different experiments, each performed in triplicate.
Cell culture and stable transfections: Cells were grown in F12-nutrient mixture medium containing 10% fetal bovine serum (FBS), 1% glutamine (v/v), 1% penicillin/streptomycin (v/v), and 10% fetal bovine serum (v/v) at 37° C. in humidified CO2 (5%). To obtain stable transfectants, cells were plated in 12-well plates at 50% confluency and transfected for 5 h in the presence of serum-free Dulbecco's modified Eagle's medium (DMEM) with pSyn SRE (1 μg/well) and pWLNeo (0.25 μg/well) using Lipofectamin (1.5 μl/well). Cells were then incubated for 2 days in growth medium. On day three, neomycin-containing medium (400 μg/ml) was added. Selection for neomycin resistant colonies was continued for three weeks. Pooled clones were analyzed for luciferase expression. Experiments were performed with pooled clones as well as with cells derived from a single clone. Cells were grown in the presence of 400 μg/ml neomycin. For experimental use, cells were plated in the absence of neomycin at least 24 h ahead in regular growth medium.
Enzyme assays: Cells to be analyzed for luciferase activity were lyzed in lysis buffer A containing 0.1% Triton X-100, 50 mM Hepes, 10 mM MgSO4, pH 7.7. Cells were scraped, collected, vortexed and briefly centrifuged to pellet cell debris. […]

[7] = system: SRE-mediated gene transcription; assay: SRE-promoter luciferase reporter gene assay in LY-B cells (CHO cells mutated in LCB1 subunit of serine-palmitoyl transferase); format: cell-based, Chinese hamster; details: preliminary data
Protocol: as §1
Enzyme assays: Cells to be analyzed for luciferase activity were lyzed in lysis buffer A containing 0.1% Triton X-100, 50 mM Hepes, 10 mM MgSO4, pH 7.7. Cells were scraped, collected, vortexed and briefly centrifuged to pellet cell debris. An aliquot was used to measure luciferase activities in a luminometer (Berthold LB 9501, Wallac Inc., Gaithersburg, Md.) with a luciferin reagent from Promega (Madison, Wis.). Luciferase activity in relative light units (RLU) was divided by protein content (mg/ml) for each extract. […]

Compound: Oc1ccc(C=Cc2cc(O)cc(O)c2)cc1 [Resvaratrol, resveratrol]
- SRE-mediated gene transcription inhibited to ([1]; 300 (unit uncertain), within 4 h): 7% (±16%)

Compound: CCCCCCCCCCCCCC(=O)N[C@H](C)[C@@H](O)c1ccccc1 [D-MAPP, (1S,2R)-D-erythro-2-(N-Myristoylamino)-1-phenyl-1-propanol]
- mRNA levels of HMG-CoA synthase [2]: decrease

Compound: CC(C)NCC(O)COc1cccc2ccccc12 (stereo not shown) [Propanolol]
- SRE-mediated gene transcription inhibited to ([1]; 250 (unit uncertain), within 30 min): 40% (+3%)

Compound: CCCCCCCCCCCCC/C=C/[C@@H](O)[C@H](CO)NC(=O)CCCCCCC [C8-ceramide, D-erythro N-octanoylsphingosine]
- ceramide de novo synthesis (3H-serine, 4 h) [3]: significantly decreases

Compound: D-erythro hexanoylsphingosine [C6-ceramide]
- cellular levels of pSREBP [4]: increased
- levels of mSREBP [4]: decreased
- sensitivity of cholesterol de novo synthesis in HSN1 cells (4561) relative to control cells [5]: more sensitive

Compound: AG10
- Reduction of SRE-mediated gene transcription(40 μg/ml) ([1]; 40 μg/ml, 5 h): 52% (±11%)

Compound: 1-methylthiodihydroceramide
- SRE-mediated gene transcription reduced to ([1]; 10 μM, 6 h): 40%

Compound: ceramide
- SRE-mediated gene transcription on addition of ceramide ([6]; under the experimental conditions of FIG. 3, data not shown): did not increase
- mRNA levels of HMG-CoA synthase [2]: decrease
- SRE-mediated gene transcription in LYB-cells incubated with ceramide [7]: did not decrease

Compound: N[C@@H]1CON=C1O [cycloserine]
- SRE-mediated gene transcription (luciferase RLU/protein) ([6]; 8 h): significantly reduced

Compound: CCCCCCCCCCCCCCCC(=O)NC(CN1CCOCC1)C(O)c1ccccc1.Cl (racemic) [PPMP, DL-threo-1-Phenyl-2-palmitoylamino-3-morpholino-1-propanol HCL]
- SRE-mediated gene transcription (luciferase RLU/protein) ([6]; 8 h): significantly reduce

Compound: CCCCCCCCCCCCC/C=C/[C@@H](O)[C@@H](N)CO [Sphingosine]
- increase of SRE-mediated gene transcription ([6]; sphingosine 1.5 μM, 8 h): up to two-fold

Compound: CCCCN1C[C@H](O)[C@@H](O)[C@H](O)[C@H]1CO.Cl [NB-DNJ, N-Butyldeoxynojirimycin-HCL]
- SRE-mediated gene transcription (luciferase RLU/protein) ([6]; 8 h): does not affect
